Results from patent US10689369B2, “Substituted indazole compounds as RORgammaT inhibitors and uses thereof” (Merck Sharp & Dohme Corp., priority 2015, dated 2020).

How the values were obtained:
PPARγ = PPARγ (Homo sapiens (Human), UniProt P37231); test: Nuclear hormone receptor selectivity assay (GAL4-NHR-LBD luciferase reporter, HEK293); format: cell-based
Method: In the assay system used, an activated GAL4-nuclear hormone receptor (NHR) fusion construct binds to an upstream activation sequence (UAS) and drives a luciferase reporter gene. […]
HEK293 cells were transfected with GAL4-NHR-LBD construct (pcDNA3.1neo) and the pGL4.31 GAL4-luciferase reporter construct (Promega) and incubated overnight at 37° C. and 5% CO2. After 16-24 hours, cells were harvested and plated at 20 μL (10,000 cells)/well in tissue-culture treated 384 well plate. […] Next, plates are spun briefly and incubated overnight at 37° C. and 5% CO2. […] In agonist mode, test compound was incubated directly with the cells. For receptors that are not constitutively active, a known agonist is also tested as a positive control.
After 16-24 hours, luciferase activity was measured. Plates and luciferase reagent (e.g. One-Glo® or Dual Glo®; Promega, Madison, Wis.) were brought to room temperature. Next, a 25 μL aliquot of luciferase reagent was added to each well. Plates were spun down briefly and incubated at room temperature for 10 minutes. The luciferase signal was measured on an Envision plate reader (Perkin Elmer) set to the ultra-sensitive luminescence setting.

[1] = tested on: murine collagen-induced arthritis model; test: Murine collagen-induced arthritis model; format: in vivo, DBA/1J mice; settings: oral 3, 10 or 30 mg/kg twice daily; FIG. 4
Method: Female DBA/1J mice (Jackson Laboratories, 7-8 weeks old) were received and allowed to acclimate for about one week. On the day of immunization, an emulsion was freshly prepared by homogenizing equal volumes of Complete Freund's Adjuvant (CFA, Chondrex #7001) and a collagen type-2 solution (bovine source, Chondrex #20022) using a tissue homogenizer, on ice. A volume of 0.1 mL of this emulsion was injected subcutaneously into the base of the tail of each mouse, which was lightly anesthetized with isoflurane. Mice recovered from anesthesia were allowed food and water ad libitum.
Eighteen days after immunization, the mice were injected intraperitoneally with 40 μg of lipopolysaccaride (LPS, Sigma # L4005) in 0.2 mL saline, in order to help synchronize the disease progression in all animals. Seven days after LPS injection, the mice were assessed for knee joint swelling by measurement of each knee joint using digital calipers and computing total joint circumference. The total knee joint circumference of the 4 knee joints was then used to randomize mice into treatment groups of equal average circumference.
This dosing continued twice daily at 8- and 16-hour intervals for the duration of the study. As a positive control, one group of mice received 25 mg/kg Jak inhibitor (JAKi) tofacitinib once per day. Joints were measured 2-3 times per week.

Chain of PPARγ (P37231 238-503, species assumed): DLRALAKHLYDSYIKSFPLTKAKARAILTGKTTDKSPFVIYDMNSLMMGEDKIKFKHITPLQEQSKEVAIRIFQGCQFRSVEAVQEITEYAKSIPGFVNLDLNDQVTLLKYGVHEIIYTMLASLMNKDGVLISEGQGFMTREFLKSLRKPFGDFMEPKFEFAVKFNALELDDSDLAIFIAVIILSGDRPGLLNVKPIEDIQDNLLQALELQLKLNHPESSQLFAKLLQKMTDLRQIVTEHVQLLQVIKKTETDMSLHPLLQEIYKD

Which “Agonist Mode, kind of agonism” value (PPARγ) does the source give for `O=C(O)[C@@H]1CC=C(c2nn(C(=O)c3c(Cl)cccc3C3(C(F)(F)F)CC3)c3c2CC[C@@H](C(=O)N2CCC4(COC4)C2)C3)CC1` [Test Compound] here?
Its value is “(partial agonist)”.

And the total joint circumference [1]?
The total joint circumference was “dose-dependent decrease in total joint circumference”.
